Experiment [1] relates to HCoV-229E. The experiment is described as follows: microbe, parasite or virus in culture. It counts as cell-based, HCoV-229E (Huh-7 cells). To be noted: for IC50: read-out: IC50 (inhibition of luciferase expression, HCoV-229E infection); for antiviral potency against HCoV 229E in words: ICMP assay, Huh-7 cells.
Another experiment has as its system 229E coronavirus. Set-up: method as in Boras et al., 2021. The note with it: cell-based assay; ref Boras et al., 2021; read-out: IC50 (anti-229E coronavirus activity, previous study); cited from earlier work.
Experiment [2] has as its system HCoV-229E. The experiment is described as follows: RT-qPCR of viral RNA and Mpro gene in HCoV-229E-infected, drug-treated Huh-7 cells. The note with it: infected Huh-7 cells, 48 h post-infection. It counts as cell-based, HCoV-229E (Huh-7 cells). Background: Quantitative PCR measures a nucleic acid by following its amplification.
Setting [3] is: Human coronavirus 229E, Huh-7, 48 h.

Read-outs that look alike come from different tables or passages of the source. Square brackets hold non-standard residues; d marks the D form. Peptide text beside a SMILES is read from it. Nle = CCCC[C@H](N)C(=O)O Bounds are passed on as bounds.

For the compound `CC(C)(C)NC(=O)N[C@H](C(=O)N1C[C@H]2[C@@H]([C@H]1C(=O)NC(CC1CCC1)C(=O)C(N)=O)C2(C)C)C(C)(C)C` (stereo partly drawn) [Boceprevir], in the experiment on HCoV-229E [1] (setting [3]), the IC50 (as a rule, the concentration that inhibits the measured activity by half) was over 50000 nM. Also, the “antiviral potency against HCoV 229E in words” value (“antiviral potency” below) with HCoV-229E [1] was “very weak inhibitory potency”.
`O=c1cc(-c2ccc(O)c(O)c2)oc2cc(O[C@@H]3O[C@H](CO)[C@@H](O)[C@H](O)[C@H]3O)cc(O)c12` [Cynaroside, luteolin 7-O-β-D-glucoside]: in the experiment on HCoV-229E [1], the “antiviral potency” value is “moderate inhibitory effects” and the IC50 worked out at 21600 nM. In the experiment with HCoV-229E [1] (listed as cynaroside), the “antiviral potency” value was “moderate antiviral activity”.
With `CC(C)C[C@H](NC(=O)OCc1ccccc1)C(=O)N[C@@H](CC1CCNC1=O)C(O)S(=O)(=O)O` (stereo partly drawn) [GC376], in the experiment with HCoV-229E [1], the IC50 is 345 nM.
Turning to `CC(C)C[C@H](NC(=O)OCc1ccccc1)C(=O)N[C@@H](C[C@@H]1CCNC1=O)C(O)S(=O)(=O)[O-].[Na+]` (stereo partly drawn) [GC376], in the experiment with HCoV-229E [1], the “antiviral potency” value is on record as “effectively suppresses the replication”.
In the case of `COc1cccc2[nH]c(C(=O)N[C@@H](CC(C)C)C(=O)N[C@@H](C[C@@H]3CCNC3=O)C(=O)COP(=O)(O)O)cc12` [Lufotrelvir], the figures for the IC50 in the experiment on 229E coronavirus and in the experiment on HCoV-229E [1] (setting [3]) were 58 nM and 65 nM, respectively. Besides, the “intracellular 229E Mpro expression (RT-qPCR, normalized to GAPDH) versus drug concentration” value in the experiment with HCoV-229E [2] (increasing drug concentration) was “decreased significantly”. Besides, in the experiment on HCoV-229E [2] (increasing drug concentrations), the “HCoV 229E viral RNA levels (RT-qPCR, normalized to GAPDH) versus drug concentration” value is “negative correlation”.
For the compound `CCCC[C@@H](C=O)NC(=O)[C@H](CC(C)C)NC(=O)[C@H](CC(C)C)NC(C)=O` [MG-101] (Ac-Leu-Leu-[Nle]-aldehyde), in the experiment on HCoV-229E [1], the “antiviral potency” value is “moderate cellular inhibition” and the IC50 turned out to be 2800 nM.
Turning to `CC(C)(C)[C@H](NC(=O)C(F)(F)F)C(=O)N1C[C@H]2[C@@H]([C@H]1C(=O)N[C@H](C#N)C[C@@H]1CCNC1=O)C2(C)C` [Nirmatrelvir], in the experiment with HCoV-229E [1] (setting [3]), the IC50 was 233 nM.
As for `CC(C)(C)c1ccc(N(C(=O)c2cnc[nH]2)[C@@H](C(=O)NC2CCCCC2)c2cccnc2)cc1` [X77], the IC50 in the experiment with HCoV-229E [1] came out at 457 nM.

The values are drawn from paper PMC12000094, “Development of a highly sensitive luciferase assay for intracellular evaluation of coronavirus Mpro activity” (Frontiers in Microbiology, 2025).
